From patent US20230293535A1, “ERBB/BTK INHIBITORS” (Dizal (Jiangsu) Pharmaceutical Co., Ltd., priority 2018, published 2023)

Assays:
Assay type in all cases: cell-based
WT EGFR = target: T1, WT EGFR (Homo sapiens, UniProt P00533); assay: WT EGFR cellular phosphorylation inhibition in A-431 (hEGF stimulated, MSD); conditions: A431 cells, 4 h compound, then 100 ng/ml hEGF 10 min;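 also: electrochemiluminescence read-out of EGFR Tyr1068 phosphorylation expressed as ratio to total EGFR, cells kept in medium with 1% FBS, compounds tested as a concentration series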
T1 construct: host or cells: A-431
T1 sequence (P00533 25-1210): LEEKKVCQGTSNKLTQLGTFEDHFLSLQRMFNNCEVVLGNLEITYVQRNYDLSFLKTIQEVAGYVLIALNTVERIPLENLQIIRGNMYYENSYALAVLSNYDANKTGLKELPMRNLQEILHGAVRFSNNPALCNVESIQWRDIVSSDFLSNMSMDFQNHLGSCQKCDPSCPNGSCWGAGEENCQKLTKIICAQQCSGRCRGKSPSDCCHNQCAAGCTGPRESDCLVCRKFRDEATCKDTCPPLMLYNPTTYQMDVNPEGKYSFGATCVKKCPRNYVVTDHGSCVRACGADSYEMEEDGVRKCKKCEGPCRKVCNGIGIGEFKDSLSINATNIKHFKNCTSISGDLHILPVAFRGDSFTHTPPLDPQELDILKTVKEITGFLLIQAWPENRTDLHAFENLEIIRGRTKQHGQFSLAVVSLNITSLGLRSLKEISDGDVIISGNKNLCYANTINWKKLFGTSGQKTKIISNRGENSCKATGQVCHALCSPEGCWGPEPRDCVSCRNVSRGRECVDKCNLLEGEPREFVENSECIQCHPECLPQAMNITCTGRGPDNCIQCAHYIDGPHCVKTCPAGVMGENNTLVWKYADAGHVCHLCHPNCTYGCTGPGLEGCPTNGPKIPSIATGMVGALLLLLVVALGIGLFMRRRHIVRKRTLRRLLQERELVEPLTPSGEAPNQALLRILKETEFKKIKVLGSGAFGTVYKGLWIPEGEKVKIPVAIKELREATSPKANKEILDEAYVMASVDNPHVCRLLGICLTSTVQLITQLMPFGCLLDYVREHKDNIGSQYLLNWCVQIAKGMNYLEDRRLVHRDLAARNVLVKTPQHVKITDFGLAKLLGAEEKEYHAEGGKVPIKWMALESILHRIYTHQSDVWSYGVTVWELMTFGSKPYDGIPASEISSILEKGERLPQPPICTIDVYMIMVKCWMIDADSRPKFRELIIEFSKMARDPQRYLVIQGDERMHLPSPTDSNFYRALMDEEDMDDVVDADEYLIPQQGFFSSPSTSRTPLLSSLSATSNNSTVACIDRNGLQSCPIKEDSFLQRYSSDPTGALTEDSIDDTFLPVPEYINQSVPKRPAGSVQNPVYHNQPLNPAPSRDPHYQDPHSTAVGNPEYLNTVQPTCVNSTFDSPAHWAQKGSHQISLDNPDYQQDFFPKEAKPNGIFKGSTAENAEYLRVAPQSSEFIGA
Protocol: One day before the test, WT or mutant cells were seeded in 96 well plates at appropriate concentrations with corresponding growth media supplemented with 1% FBS, and incubated overnight. The next day, tested compounds at a series of concentrations were added into each individual well of the plates, and the plates were incubated for 4 h at 37° C. with 5% CO2.
The EGFR (Y1068) phosphorylation level (activity) of cells in each well were then measured with MSD kit named “MULTI-SPOT®96 4-Spot HB Prototype EGFR Triplex [sequence]: pEGFR(Tyr1068),pEGFR(Tyr1173), Total EGFR” according to the manufacturer’s instruction (MESO SCALE DISCOVERY, Cat# N45ZB-1). The assay is an electrochemiluminescent method for determining both phosphorylated and total EGFR of cells with an MSD SECTOR® Imager and the ratio of p-EGFR/total EGFR can be generated by the machine. The Her2 (Y1248) phosphorylation level (activity) of cells in each well were measured with MSD Kit named “Phospho-ErbB2 (Tyr1248) Assay Whole Cell Lysate Kit” according to the manufacturer’s instruction (MESO SCALE DISCOVERY, Cat# K151CLD-3). The assay is an electrochemiluminescent method (MESO SCALE DISCOVERY) for determining both phosphorylated and total Her2 of cells with an MSD SECTOR® Imager and then the ratio of p-Her2/total Her2 can be generated by the machine.

[1] = target: T2, human Her2 exon 20 insertion mutation YVMA (Homo sapiens, UniProt P04626, INS775YVMA); assay: Her2 Exon 20 YVMA insertion cellular phosphorylation inhibition (MSD p-Her2 Y1248/total Her2); conditions: Her2 YVMAins cells, 4 h compound;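 also: lentivirally transduced NIH-3T3 cells in 1% FBS medium, electrochemiluminescent MSD read-out, graded compound concentrations at 37 °C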
T2 construct: expressed in transfected cells; host or cells: NIH-3T3, lentiviral transduction, puromycin selection

[2] = target: T3, human EGFR exon 20 V769_D770insASV (Homo sapiens, UniProt P00533, INS769ASV); assay: EGFR Exon20 ASV insertion cellular phosphorylation inhibition (MSD pEGFR Y1068/total EGFR); conditions: Ba/F3 EGFR ASV ins cells, 4 h compound, p-EGFR(Y1068)/total EGFR;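 also: electrochemiluminescent readout on an MSD SECTOR Imager, IL3-independent transduced cells in medium with 1% FBS, compound concentration series at 37 °C and 5% CO2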
T3 construct: expressed in transfected cells; host or cells: Ba/F3 (DSMZ ACC-300), lentiviral transduction, puromycin selection, IL3 depletion
T3 sequence (P00533 with tags, fused parts or gaps INS769ASV): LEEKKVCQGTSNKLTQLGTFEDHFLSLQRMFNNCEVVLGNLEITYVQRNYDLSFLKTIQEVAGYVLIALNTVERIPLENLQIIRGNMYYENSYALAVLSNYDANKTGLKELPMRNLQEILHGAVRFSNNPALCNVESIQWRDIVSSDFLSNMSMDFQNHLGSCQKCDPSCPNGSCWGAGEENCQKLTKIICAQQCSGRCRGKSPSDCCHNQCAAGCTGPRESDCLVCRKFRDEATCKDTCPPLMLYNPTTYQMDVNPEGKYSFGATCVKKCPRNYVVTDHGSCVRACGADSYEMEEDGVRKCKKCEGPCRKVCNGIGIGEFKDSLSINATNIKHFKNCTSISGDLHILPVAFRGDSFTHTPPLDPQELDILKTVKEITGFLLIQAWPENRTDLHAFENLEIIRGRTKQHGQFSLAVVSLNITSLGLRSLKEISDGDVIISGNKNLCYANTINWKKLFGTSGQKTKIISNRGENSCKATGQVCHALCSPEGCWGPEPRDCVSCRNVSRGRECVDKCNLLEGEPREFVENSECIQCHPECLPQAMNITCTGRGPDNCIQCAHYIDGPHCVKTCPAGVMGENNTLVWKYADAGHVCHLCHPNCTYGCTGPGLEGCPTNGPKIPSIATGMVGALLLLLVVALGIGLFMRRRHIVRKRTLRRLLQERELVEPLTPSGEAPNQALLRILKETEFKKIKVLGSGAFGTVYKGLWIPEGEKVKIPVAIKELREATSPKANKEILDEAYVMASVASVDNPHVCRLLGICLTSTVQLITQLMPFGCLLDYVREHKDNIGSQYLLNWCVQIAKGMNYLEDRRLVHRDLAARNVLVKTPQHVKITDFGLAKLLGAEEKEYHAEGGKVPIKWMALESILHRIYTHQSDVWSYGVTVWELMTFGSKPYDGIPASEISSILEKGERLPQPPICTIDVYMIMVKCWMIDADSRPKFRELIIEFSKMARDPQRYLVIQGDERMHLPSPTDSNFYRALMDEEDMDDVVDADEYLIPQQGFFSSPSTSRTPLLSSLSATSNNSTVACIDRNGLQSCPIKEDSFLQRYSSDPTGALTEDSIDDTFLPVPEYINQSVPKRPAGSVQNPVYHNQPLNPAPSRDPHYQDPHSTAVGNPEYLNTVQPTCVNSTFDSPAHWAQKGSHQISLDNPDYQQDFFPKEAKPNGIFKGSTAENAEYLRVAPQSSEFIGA

WT EGFR cell line A-431 = assay: Cell proliferation, WT EGFR A431 (CellTiter-Glo, 72 h); conditions: Homo sapiens, A-431, 72 h, A431, 72 h proliferation; read-out: EGFR WT A431 GI50;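 also: proliferation from a luminescent ATP viability signal, expressed as 100 × (treated minus time-zero plate) over (DMSO control minus time-zero plate), cells grown with 10% FBS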
Ba/F3 EGFR ASV ins cells = assay: Cell proliferation, Ba/F3 EGFR ASV ins (CellTiter-Glo, 72 h); conditions: Ba/F3 EGFR, 72 h, Ba/F3 EGFR ASV ins, 72 h proliferation; read-out: EGFR Exon20 ASV insertion GI50;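 also: IL3-independent Ba/F3 cells transduced with EGFR V769_D770insASV, cellular ATP luminescence after compound exposure, growth relative to DMSO control with the day-0 baseline reading subtracted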
[3] = system: NCI-H1975 EGFR L858R/T790M cells; assay: Cell proliferation, NCI-H1975 EGFR L858R/T790M (CellTiter-Glo, 72 h); conditions: Homo sapiens, NCI-H1975, 72 h, NCI-H1975, 72 h proliferation; read-out: EGFR L858R and T790M mutation GI50;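 also: viable cells quantified by luciferase-based ATP luminescence, proliferation expressed relative to DMSO-treated wells (100%) after subtracting a parallel plate read at the time of dosing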
DB cells = assay: BTK (wt) cell proliferation, DB (CellTiter-Glo, 72 h); conditions: Homo sapiens, DB, DB cells, CellTiter-Glo, read-out: Non-BCR activated DB GI50;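 also: DB cells in 384-well plates given a dilution series of compound, viable cells read by ATP luminescence, growth expressed versus DMSO control after subtracting a time-zero plate reading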
EGFR L858R&T790M = target: T4, EGFR L858R&T790M (Homo sapiens, UniProt P00533, L858R/T790M); assay: EGFR L858R and T790M cellular phosphorylation inhibition in NCI-H1975 (MSD); conditions: NCI-H1975 cells, 4 h compound, p-EGFR(Y1068)/total EGFR; read-out: EGFR L858R and T790M mutation IC50;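 also: phosphorylated and total EGFR detected by electrochemiluminescence, cells exposed to compound in medium containing 1% FBS at 37 °C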
T4 construct: host or cells: NCI-H1975
T4 sequence (P00533 25-1210 T790M/L858R): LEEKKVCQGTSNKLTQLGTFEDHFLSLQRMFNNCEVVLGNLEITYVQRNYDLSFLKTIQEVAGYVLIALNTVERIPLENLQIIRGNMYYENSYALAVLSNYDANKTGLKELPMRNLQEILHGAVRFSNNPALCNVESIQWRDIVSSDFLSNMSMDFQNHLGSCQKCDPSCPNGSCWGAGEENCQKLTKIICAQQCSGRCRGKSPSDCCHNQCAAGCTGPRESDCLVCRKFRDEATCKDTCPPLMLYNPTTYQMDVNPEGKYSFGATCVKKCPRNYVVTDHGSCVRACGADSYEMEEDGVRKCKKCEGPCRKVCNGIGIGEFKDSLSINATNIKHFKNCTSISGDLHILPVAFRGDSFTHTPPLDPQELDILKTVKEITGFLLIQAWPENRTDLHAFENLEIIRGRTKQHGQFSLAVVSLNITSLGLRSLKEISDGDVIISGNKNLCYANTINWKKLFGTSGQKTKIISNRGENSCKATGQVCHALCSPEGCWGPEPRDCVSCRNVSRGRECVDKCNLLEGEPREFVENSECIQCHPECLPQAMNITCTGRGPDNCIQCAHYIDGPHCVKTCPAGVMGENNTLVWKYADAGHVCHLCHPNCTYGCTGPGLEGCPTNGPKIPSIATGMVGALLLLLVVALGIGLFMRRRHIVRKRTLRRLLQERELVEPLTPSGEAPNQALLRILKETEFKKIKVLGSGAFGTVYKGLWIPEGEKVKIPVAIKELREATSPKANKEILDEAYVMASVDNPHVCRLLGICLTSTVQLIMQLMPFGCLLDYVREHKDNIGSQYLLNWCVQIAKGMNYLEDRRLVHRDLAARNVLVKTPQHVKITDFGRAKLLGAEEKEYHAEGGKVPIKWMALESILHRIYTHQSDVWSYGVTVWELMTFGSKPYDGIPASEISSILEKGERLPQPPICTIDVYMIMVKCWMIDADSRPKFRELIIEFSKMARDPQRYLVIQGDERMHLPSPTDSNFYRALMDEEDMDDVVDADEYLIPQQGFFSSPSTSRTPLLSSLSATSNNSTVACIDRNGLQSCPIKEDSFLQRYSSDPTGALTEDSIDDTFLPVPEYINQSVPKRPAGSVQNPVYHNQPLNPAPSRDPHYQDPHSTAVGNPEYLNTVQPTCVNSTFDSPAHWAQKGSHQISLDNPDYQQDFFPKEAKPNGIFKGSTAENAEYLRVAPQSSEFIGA

Ba/F3 EGFR NPH ins cells = assay: Cell proliferation, Ba/F3 EGFR NPH ins (CellTiter-Glo, 72 h); conditions: Ba/F3 EGFR, 72 h, Ba/F3 EGFR NPH ins, 72 h proliferation; read-out: EGFR Exon20 NPH insertion GI50;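 also: IL3-independent cells carrying constitutively phosphorylated EGFR, compound dilution series, viable cells quantified by ATP luminescence, growth relative to DMSO wells after subtracting pre-dosing (day 0) baseline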
[4] = system: Her2 exon 20 insertion YVMA transduced NIH-3T3 cell line; assay: Cell proliferation, Her2 YVMAins NIH-3T3 (CellTiter-Glo, 72 h); conditions: Mus musculus, NIH3T3, 72 h, Her2 YVMAins cells, 72 h proliferation; read-out: Her2 Exon 20 YVMA insertion GI50;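 also: viable cells quantified by ATP luminescence, growth over a day-zero baseline plate expressed as percent of DMSO control growth, compound dilution series in 10% FBS medium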
Protocol: WT or mutant cells were seeded in 384 well plates at appropriate concentrations with corresponding growth media supplemented with 10% FBS, for each experiment, identical plates were prepared in duplicates, and the plates were incubated overnight. On the next day, one of each duplicated plates was dosed with tested compounds at a series of concentrations, and another one of the duplicated plate was analysied for G0 value. The dosed plates were incubate for another 72 h at 37° C. with 5% CO2 and the number of viable cells in each well of the G0 plates or the dosed plates were measured by CellTiter-Glo® Luminescent Cell Viability Assay (Promega). This assay is a luminescent method for determining the number viable cells through measurement of cellular ATP concentration by detection of luciferase activity. Detection reagents (15 µl) was dispensed into per well, and the plates were incubate for 30 min at room temperature. Then, the luminescence in each well was measured using the Envision plate reader (PerkinElmer). The percentage of proliferation was calculated based on the formula: %Proliferation= 100 × (G3 value of sample well-Go value)/(G3 value of DMSO control-Go value).

Ri-1 cells = assay: BTK (wt) cell proliferation, Ri-1 (CellTiter-Glo, 72 h); conditions: Ri-1, 72 h, Ri-1 cells, 72 h, CellTiter-Glo; read-out: BTK WT Ri-1 GI50;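 also: viable cells quantified as cellular ATP luminescence, proliferation normalized to a time-zero plate and the DMSO control, compounds tested across a dilution series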
Protocol: OCI-LY-10 at 3,750 cells/well, TMD-8 and Ri-1 at 2,000 cells/well, and DB at 1,250 cells/well, respectively, were sorted into 384-well plates in RPMI1640 medium with 10% FBS. After overnight incubation, all cells were incubated with compound at a series of concentrations. Meanwhile, a duplicated plate of each cell line was prepared for measuring G0 value. The dosed plates were further incubated for 72 hours and the number of viable cells was measured by CellTiter-Glo® Luminescent Cell Viability Assay (Promega), a luminescent method for determining the number of viable cells through measurement of cellular ATP concentration using Envision plate reader (PerkinElmer). The percentage of proliferation was calculated as: % Proliferation = 100 × (G3 value of sample well - G0 value)/(G3 value of DMSO control - G0 value).

[5] = target: T5, human EGFR exon 20 H773_V774insNPH (Homo sapiens, UniProt P00533, INS773NPH); assay: EGFR Exon20 NPH insertion cellular phosphorylation inhibition (MSD pEGFR Y1068/total EGFR); conditions: Ba/F3 EGFR NPH ins cells, 4 h compound, p-EGFR(Y1068)/total EGFR;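 also: IL3-independent Ba/F3 cells with constitutively phosphorylated EGFR, compound exposure at 37 °C under 5% CO2, electrochemiluminescent MSD measurement of the p-EGFR to total EGFR ratio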
T5 construct: host or cells: Ba/F3
T5 sequence (P00533 with tags, fused parts or gaps INS773NPH): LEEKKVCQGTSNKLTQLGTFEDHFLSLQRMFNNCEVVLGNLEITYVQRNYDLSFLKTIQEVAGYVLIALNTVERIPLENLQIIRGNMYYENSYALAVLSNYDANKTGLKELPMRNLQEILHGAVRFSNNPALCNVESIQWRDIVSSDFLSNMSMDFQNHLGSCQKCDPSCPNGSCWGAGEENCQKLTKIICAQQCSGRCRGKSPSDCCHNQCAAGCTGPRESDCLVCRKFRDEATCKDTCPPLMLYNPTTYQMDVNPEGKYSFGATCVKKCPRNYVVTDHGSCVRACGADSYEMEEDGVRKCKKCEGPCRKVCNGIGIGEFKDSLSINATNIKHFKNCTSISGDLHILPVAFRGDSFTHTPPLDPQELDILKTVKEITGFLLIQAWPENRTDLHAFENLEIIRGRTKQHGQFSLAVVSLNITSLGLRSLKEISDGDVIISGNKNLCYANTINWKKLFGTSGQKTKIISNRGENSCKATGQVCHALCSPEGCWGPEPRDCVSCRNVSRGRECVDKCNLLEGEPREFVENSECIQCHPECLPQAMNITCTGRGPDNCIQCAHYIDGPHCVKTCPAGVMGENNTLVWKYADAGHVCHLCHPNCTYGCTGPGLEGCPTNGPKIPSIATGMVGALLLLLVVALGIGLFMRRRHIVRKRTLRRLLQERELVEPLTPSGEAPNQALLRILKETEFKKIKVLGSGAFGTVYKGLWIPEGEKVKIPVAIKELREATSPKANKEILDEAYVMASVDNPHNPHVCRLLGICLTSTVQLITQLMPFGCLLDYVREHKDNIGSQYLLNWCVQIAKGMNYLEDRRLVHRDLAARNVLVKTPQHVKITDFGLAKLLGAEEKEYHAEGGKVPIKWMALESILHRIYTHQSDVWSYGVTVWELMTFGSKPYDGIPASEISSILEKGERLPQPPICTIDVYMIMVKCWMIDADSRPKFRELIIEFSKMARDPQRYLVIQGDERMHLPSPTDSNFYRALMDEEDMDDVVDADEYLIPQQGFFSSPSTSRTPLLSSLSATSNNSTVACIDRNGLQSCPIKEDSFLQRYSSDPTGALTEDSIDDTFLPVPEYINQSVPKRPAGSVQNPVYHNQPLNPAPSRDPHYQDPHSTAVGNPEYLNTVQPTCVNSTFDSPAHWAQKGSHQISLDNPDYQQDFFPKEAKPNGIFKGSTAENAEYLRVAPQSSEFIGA

TMD-8 cells = assay: BTK (wt) cell proliferation, TMD-8 (CellTiter-Glo, 72 h); conditions: Homo sapiens, TMD8, 72 h, TMD-8 cells, 72 h, CellTiter-Glo; read-out: BTK WT TMD-8 GI50;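 also: viable cells quantified by ATP-based luminescence, proliferation expressed as percent of DMSO control after subtracting a time-zero baseline plate read at dosing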
OCI-LY-10 cells = assay: BTK (wt) cell proliferation, OCI-LY-10 (CellTiter-Glo, 72 h); conditions: Homo sapiens, OCI-Ly10, 72 h, OCI-LY-10 cells, 72 h, CellTiter-Glo; read-out: BTK WT OCI-LY-10 GI50;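 also: viable cells quantified via cellular ATP luminescence, proliferation given as percent of DMSO control after subtracting a duplicate plate read at time of dosing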

| IC50 (WT EGFR) [nM] | IC50 [1] [nM] | IC50 [2] [nM] | GI50 (WT EGFR cell line A-431) [nM] | GI50 (Ba/F3 EGFR ASV ins cells) [nM] | GI50 [3] [nM] | IC50 (EGFR L858R&T790M) [nM] | GI50 (Ba/F3 EGFR NPH ins cells) [nM] | IC50 [5] [nM] | GI50 (OCI-LY-10 cells) [nM] | Compound | GI50 (DB cells) [nM] | GI50 [4] [nM] | GI50 (Ri-1 cells) [nM] | GI50 (TMD-8 cells) [nM] |
| --- | --- | --- | --- | --- | --- | --- | --- | --- | --- | --- | --- | --- | --- | --- |
| 13.1 | 9 | 6.7 | 13.8 | 21.8 | 1.6 | 0.8 | 23.2 | 12.6 | 1.57 | C=CC(=O)Nc1cc(Nc2ncnc(Nc3cc(F)c(Cl)cc3C(C)(C)O)n2)c(OC)cc1N1CC[C@@H]2CN(C)C[C@@H]21 [Compound 41, N-(5-(4-(4-chloro-5-fluoro-2-(2-hydroxypropan-2-yl)phenylamino)-1,3,5-triazin-2-ylamino)-4-methoxy-2-((3aR,6aR)-5-methylhexahydropyrrolo[3,4-b]pyrrol-1 (2H)-yl)phenyl)acrylamide] | > 3000 | 52.1 | 4.92 | 4.57 |
| 8.1 | 2.9 | 5.9 | 4.3 | 9.3 | 1.2 | 0.3 | 17.4 | 3.9 | 7.6 | C=CC(=O)Nc1cc(Nc2ncnc(Nc3cc(F)c(Cl)cc3C(C)(C)O)n2)c(OC)cc1N1CCC[C@@H]1CN(C)C [Compound 43, (R)-N-(5-(4-(4-chloro-5-fluoro-2-(2-hydroxypropan-2-yl)phenylamino)-1,3,5-triazin-2-ylamino)-2-(2-((dimethylamino)methyl)pyrrolidin-1-yl)-4-methoxyphenyl)acrylamid] | > 3000 | 27.6 | 28.5 | 13.6 |
| 30.9 | 8 | 12.5 | 14.8 | 29.8 | 3.6 | 0.5 | 39 | 6.8 | 6.75 | C=CC(=O)Nc1cc(Nc2ncnc(Nc3cc(Cl)c(F)cc3C(C)(C)O)n2)c(OC)cc1N(C)C[C@@H]1CCCN1C [Compound 44, (S)-N-(5-(4-(5-chloro-4-fluoro-2-(2-hydroxypropan-2-yl)phenylamino)-1,3,5-triazin-2-ylamino)-4-methoxy-2-(methyl((1-methylpyrrolidin-2-yl)methyl)amino)phenyl) acrylamide] | > 3000 | 74.6 | 10.4 | 4.32 |
| 7.6 | 3 | 6.5 | 4.3 | 13.6 | 1.1 | 0.3 | 17.8 | 2.9 | 5.25 | C=CC(=O)Nc1cc(Nc2ncnc(Nc3cc(F)c(C4CC4)cc3C(C)(C)O)n2)c(OC)cc1N1CC[C@@H]2CN(C)C[C@@H]21 [Compound 45, N-(5-(4-(4-cyclopropyl-5-fluoro-2-(2-hydroxypropan-2-yl)phenylamino)-1,3,5-triazin-2-ylamino)-4-methoxy-2-((3aR,6aR)-5-methylhexahydropyrrolo[3,4-b]pyrrol-1(2H)-yl)phenyl)acrylamide] | > 3000 | 30.8 | 11.6 | 2.33 |
| 8.7 | 1.7 | 6.4 | 4.5 | 8.2 | 1.4 | 0.2 | 18.8 | 2.5 | 2.97 | C=CC(=O)Nc1cc(Nc2ncnc(Nc3cc(F)c(C4CC4)cc3C(C)(C)O)n2)c(OC)cc1N1CCC[C@@H]1CN(C)C [Compound 46, (R)-N-(5-(4-(4-cyclopropyl-5-fluoro-2-(2-hydroxypropan-2-yl)phenylamino)-1,3,5-triazin-2-ylamino)-2-(2-((dimethylamino)methyl)pyrrolidin-1-yl)-4-methoxyphenyl)acrylamide] | 2580 | 16.8 | 6.49 | 0.9 |
| 23.8 | 4.4 | 10.1 | 10.9 | 22.1 | 1.9 | 0.3 | 27.1 | 5.6 | 775 | C=CC(=O)Nc1cc(Nc2ncnc(Nc3cc(F)c(F)cc3C(C)(O)CC)n2)c(OC)cc1N1CC[C@@H]2CN(C)C[C@@H]21 (stereo partly drawn) [Compound 47, N-(5-(4-(4,5-difluoro-2-(2-hydroxybutan-2-yl)phenylamino)-1,3,5-triazin-2-ylamino)-4-methoxy-2-((3aR,6aR)-5-methylhexahydropyrrolo[3,4-b]pyrrol-1(2H)-yl)phenyl) acrylamide] | > 3000 | 34.1 | 208 | 55.3 |
| 28.4 | 2.8 | 16.2 | 14.1 | 29.1 | 3.2 | 0.4 | 57.9 | 11.1 | 14.1 | C=CC(=O)Nc1cc(Nc2ncnc(Nc3cc(F)c(F)cc3C(C)(O)CC)n2)c(OC)cc1N1CC[C@@H](N(C)C)C1 (stereo partly drawn) [Compound 48, N-(5-(4-(4,5-difluoro-2-(2-hydroxybutan-2-yl)phenylamino)-1,3,5-triazin-2-ylamino)-2-((R)-3-(dimethylamino)pyrrolidin-1-yl)-4-methoxyphenyl)acrylamide] | > 3000 | 57.9 | 371 | 70.2 |
| 22.8 | 6.2 | 9.6 | 15.3 | 31.9 | 1.5 | 0.5 | 31.6 | 19.6 | 1250 | C=CC(=O)Nc1cc(Nc2ncnc(Nc3cc(F)c(F)cc3C(C)(O)CC)n2)c(OC)cc1N(C)CCN(C)C (centres unmarked) [Compound 49, N-(5-(4-(4,5-difluoro-2-(2-hydroxybutan-2-yl)phenylamino)-1,3,5-triazin-2-ylamino)-2-((2-(dimethylamino)ethyl)(methyl)amino)-4-methoxyphenyl)acr ylamide] | > 3000 | 36.1 | 566 | 107 |
| 60.5 | 14.2 | 39.4 | 41.3 | 104 | 6.1 | 2.4 | 68 | 29.9 | 4.42 | C=CC(=O)Nc1cc(Nc2ncnc(Nc3cc(Cl)c(Cl)cc3C(C)(C)O)n2)c(OC)cc1N1CC[C@@H]1CN(C)C [Compound 54, (R)-N-(5-(4-(4,5-dichloro-2-(2-hydroxypropan-2-yl)phenylamino)-1,3,5-triazin-2-ylamino)-2-(2-((dimethylamino)methyl)azetidin-1-yl)-4-methoxyphenyl)acrylamide] | > 3000 | 210 | 9.97 | 3.62 |
| 30.9 | 8.4 | 9.8 | 14.6 | 44.1 | 3.8 | 0.8 | 62.6 | 20.1 | 6.68 | C=CC(=O)Nc1cc(Nc2ncnc(Nc3cc(F)c(F)cc3C(C)(O)CC)n2)c(OC)cc1N1CC[C@@H]1CN(C)C (stereo partly drawn) [Compound 55, N-(5-(4-(4,5-difluoro-2-(2-hydroxybutan-2-yl)phenylamino)-1,3,5-triazin-2-ylamino)-2-((R)-2-((dimethylamino)methyl)azetidin-1-yl)-4-methoxyphenyl)acrylamide] | > 3000 | 88.9 | 12 | 11.5 |
